Marks after values point to notes of the source that are not given here.
Target: T1, USP7asoc (active site only cysteine) (Homo sapiens, UniProt Q93009, C300S/C315S/C334S/C478S/C488S/C510S)
T1 construct: (208‐560, C300/315/334/448/478/510S); made in house
Test: Differential scanning fluorimetry (DSF), melting temperature shift of USP7asoc mutant
Format: binding
Settings: for ∆T m ± SD USP7asoc: 8 µM protein, 250 µM compound (1:31.25)
Procedure: USP7asoc only retains the catalytic Cys223 while all the other six cysteines are mutated to serine. DSF was selected for initial assessment since it is an efficient and rapid primary screening method readily available to our lab. […] An important consideration when assessing covalent inhibitors is the time dependence of covalent target occupancy and thus potency, which is determined by the reaction kinetics of the covalent binding event. To allow for drawing conclusions on compounds with slower reaction kinetics, incubation times of 30 min, 4 h, and 24 h at 20°C were chosen for the DSF screen with USP7 (Table 1 and Figures 2 and 3). The threshold at which compounds were considered (de‐)stabilizers was defined at 0.5°C. In parallel, the intrinsic reactivity of a set of representative compounds was evaluated in a glutathione reactivity assay. […] The expression and purification of USP7 catalytic domain (USP7CD) (208‐560) and USP7asoc (active site only cysteine) by using a pET24a(+)_HLT_USP7 construct were performed as previously described. […] For the USP7asoc, six of the seven cysteines are mutated to serines (208‐560, C300/315/334/448/478/510S). All utilized protein sequences are depicted in Supporting Information S2: Table S.3.1. The melting temperatures of USP7 and USP7asoc in the presence or absence of fragments were determined by DSF on a Qiagen Rotor‐Q Model‐5‐Plex HRM real‐time PCR instrument (Qiagen, Hilden, Germany). SYPRO Orange (Life Technologies Corporation, Eugene, OR, USA) was used as a fluorescent dye at a final concentration of 5x. The protein concentration was 8 µM, and the final compound concentration was 250 µM, corresponding to a protein‐to‐compound ratio of 1:31.25. All compounds were dissolved in dimethyl sulfoxide (DMSO) and the proteins in Tris buffer (25 mM Tris pH 8.0, 150 mM NaCl, 5 mM TCEP, 5% (v/v) DMSO). All measurements were performed after 30 min, 4 h, and 24 h of incubation and at least in triplicate. DSF experiments were carried out with a constant heating rate of 270°C/h. The temperature was ramped from 28°C to 60°C–70°C with excitation and emission filters set at 470 nm and 610 nm, respectively. The melting temperatures (T m) of USP7 and USP7asoc were determined from the maxima of the first derivatives of the melting curves in OriginPro2020 (OriginLab, Northampton, MA, USA). The ∆T m was calculated by subtraction of the T m of the protein sample with pure DMSO from the T m of the protein sample mixed with compound. Error propagation was used to average multiple runs for a compound. A compound was considered to be a hit if the shift in the ∆T m was at least 0.50°C [55].

T1 sequence (Q93009 with tags, fused parts or gaps C300S/C315S/C334S/C478S/C488S/C510S): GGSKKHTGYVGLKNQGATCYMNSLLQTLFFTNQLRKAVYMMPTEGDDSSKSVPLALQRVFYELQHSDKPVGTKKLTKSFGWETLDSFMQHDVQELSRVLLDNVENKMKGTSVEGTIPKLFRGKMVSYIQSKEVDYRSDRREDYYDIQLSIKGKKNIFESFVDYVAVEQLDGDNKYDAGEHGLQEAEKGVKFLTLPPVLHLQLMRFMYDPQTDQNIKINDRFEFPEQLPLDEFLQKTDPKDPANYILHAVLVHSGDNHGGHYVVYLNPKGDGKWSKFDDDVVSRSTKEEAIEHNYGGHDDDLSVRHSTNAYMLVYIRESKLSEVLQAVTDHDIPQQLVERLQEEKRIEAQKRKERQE

Structure (SMILES)	∆T m ± SD USP7asoc (30 min incubation at 20°C)	∆T m ± SD USP7asoc (4 h incubation at 20°C)	∆T m ± SD USP7asoc (24 h incubation at 20°C)	∆T m of small shoulder (second smaller peak) of the melting curve of USP7asoc (24 h incubation, 250 µM compound)
O=[N+]([O-])c1ccc(F)nc1Nc1cc2c(-c3ccc(-c4ccncc4)cc3)cccc2cn1 [7i, N‐(6‐Fluoro‐3‐nitropyridin‐2‐yl)‐5‐[4‐(pyridin‐4‐yl)phenyl]isoquinolin‐3‐amine]	–0.30 ± 0.12 °C	–0.15 ± 0 °C	0.05 ± 0.17 °C	
CCCn1cc(-c2cccc3cnc(Nc4nc(F)ccc4[N+](=O)[O-])cc23)cn1 [7d, N‐(6‐Fluoro‐3‐nitropyridin‐2‐yl)‐5‐(1‐propyl‐1H‐pyrazol‐4‐yl)isoquinolin‐3‐amine]	0.00 ± 0 °C	0.03 ± 0.08 °C	0.35 ± 0.06 °C	
O=[N+]([O-])c1ccc(F)nc1Nc1cc2c(-c3cnn(C4CC4)c3)cccc2cn1 [7e, 5‐(1‐Cyclopropyl‐1H‐pyrazol‐4‐yl)‐N‐(6‐fluoro‐3‐nitropyridin‐2‐yl)isoquinolin‐3‐amine]	–0.35 ± 0.09 °C	–0.13 ± 0.04 °C	0.40 ± 0.09 ^b °C	about –5 °C

Other lines, results leading:

∆T m ± SD USP7asoc (30 min incubation at 20°C)	∆T m ± SD USP7asoc (4 h incubation at 20°C)	∆T m ± SD USP7asoc (24 h incubation at 20°C)	∆T m of small shoulder (second smaller peak) of the melting curve of USP7asoc (24 h incubation, 250 µM compound)	Structure (SMILES)
–0.25 ± 0.23 °C	0.20 ± 0.09 °C	0.23 ± 0.08 ^b °C		CCn1cc(-c2cccc3cnc(Nc4nc(F)ccc4[N+](=O)[O-])cc23)cn1 [7c, 5‐(1‐Ethyl‐1H‐pyrazol‐4‐yl)‐N‐(6‐fluoro‐3‐nitropyridin‐2‐yl)isoquinolin‐3‐amine]
0.05 ± 0.09 °C	0.45 ± 0.12 °C	0.38 ± 0.06 °C		Cn1ccc(-c2cccc3cnc(Nc4nc(F)ccc4[N+](=O)[O-])cc23)c1 [7b, N‐(6‐Fluoro‐3‐nitropyridin‐2‐yl)‐5‐(1‐methyl‐1H‐pyrrol‐3‐yl)isoquinolin‐3‐amine]

Reference: publication PMC12336439 (Archiv Der Pharmazie, 2025)
